Reference: patent publication US11584710B2, “Compounds for treating infections” (HORITZONTS TECNOLOGICS HUNGARY KORLÁTOLT FELELOSSÉGU …, priority 2017, dated 2023)

Legend:
[1] = system: C. albicans; parameters: key: I = intermediate activity; S = susceptibility; R = Resistance; settings: C. albicans clinical strain; cited from earlier work
[2] = system: C. glabrata; parameters: key: I = intermediate activity; S = susceptibility; R = Resistance; settings: C. glabrata clinical strain; cited from earlier work
[3] = system: C. tropicalis; parameters: key: I = intermediate activity; S = susceptibility; R = Resistance; settings: C. tropicalis clinical strain; cited from earlier work
[4] = system: C. parapsilosis; parameters: key: I = intermediate activity; S = susceptibility; R = Resistance; settings: C. parapsilosis clinical strain; cited from earlier work
[5] = system: C. lusitaniae; parameters: key: I = intermediate activity; S = susceptibility; R = Resistance; settings: C. lusitaniae clinical strain; cited from earlier work
[6] = system: C. Krusei; parameters: key: I = intermediate activity; S = susceptibility; R = Resistance; settings: C. Krusei clinical strain; cited from earlier work
[7] = system: C. guillermondii; parameters: key: I = intermediate activity; S = susceptibility; R = Resistance; settings: C. guillermondii clinical strain; cited from earlier work
[8] = system: A. fumigatus; parameters: key: I = intermediate activity; S = susceptibility; R = Resistance; settings: A. fumigatus clinical strain; cited from earlier work
[9] = system: A. niger; parameters: key: I = intermediate activity; S = susceptibility; R = Resistance; settings: A. niger clinical strain; cited from earlier work
[10] = system: A. terreus; parameters: key: I = intermediate activity; S = susceptibility; R = Resistance; settings: A. terreus clinical strain; cited from earlier work
[11] = system: A. flavus; parameters: key: I = intermediate activity; S = susceptibility; R = Resistance; settings: A. flavus clinical strain; cited from earlier work
[12] = system: S. cerevisiae; parameters: key: I = intermediate activity; S = susceptibility; R = Resistance; settings: S. cerevisiae clinical strain; cited from earlier work
[13] = system: A. flavus; assay: Antifungal disk diffusion susceptibility test (CLSI M44); assay type: cell-based; settings: Aspergillus flavus; A. flavus; 10 μg control
Experimental: (§1) Filamentous fungi and yeasts strains, from clinical origin, were supplied by Microbiology Service from The Princess Hospital, Madrid. They are detailed in Table IX.
(§2) Filamentous fungi and yeast cells suspensions in distilled water was prepared from a culture of 24-48 h, depending on species, in Sabouraud agar. Each suspension was adjusted to a fixed size inoculum of 1-5×10^8 CFU/ml with a spectrophotometer (Ferraro, MJ National Committee for Clinical Laboratory Standards. 2000).
(§3) Antifungal susceptibility tests were developed following the standardized methodology detailed in document CLSI: M44-4: Method for Antifungal Disk diffusion susceptibility testing of yeasts consisting of disk diffusion on agar Muller-Hinton (supplemented with 2% glucose).

[14] = system: A. fumigatus; assay: as above; assay type: cell-based; settings: Aspergillus fumigatus; A. fumigatus; 10 μg control
Experimental: as §1, §2, §3

[15] = system: A. niger; assay: as above; assay type: cell-based; settings: Aspergillus niger; A. niger; 10 μg control
Experimental: as §1, §2, §3

[16] = system: A. terreus; assay: as above; assay type: cell-based; settings: Aspergillus terreus; A. terreus; 10 μg control
Experimental: as §1, §2, §3

[17] = system: C. albicans; assay: as above; assay type: cell-based; settings: Candida albicans; C. albicans; 10 μg control
Experimental: as §1, §2, §3

[18] = system: C. guillermondii; assay: as above; assay type: cell-based; settings: C. guillermondii; 10 μg control
Experimental: as §1, §2, §3

[19] = system: C. lusitaniae; assay: as above; assay type: cell-based; settings: Clavispora lusitaniae; C. lusitaniae; 10 μg control
Experimental: as §1, §2, §3

[20] = system: C. parapsilosis; assay: as above; assay type: cell-based; settings: Lodderomyces parapsilosis; C. parapsilosis; 10 μg control
Experimental: as §1, §2, §3

[21] = system: C. tropicalis; assay: as above; assay type: cell-based; settings: Candida tropicalis; C. tropicalis; 10 μg control
Experimental: as §1, §2, §3

[22] = system: S. cerevisiae; assay: as above; assay type: cell-based; settings: Saccharomyces cerevisiae; S. cerevisiae; 10 μg control
Experimental: as §1, §2, §3

Structure (SMILES)	Susceptibility of the strain [1]	Susceptibility of the strain [2]	Susceptibility of the strain [3]	Susceptibility of the strain [4]	Susceptibility of the strain [5]	Susceptibility of the strain [6]	Susceptibility of the strain [7]	Susceptibility of the strain [8]	Susceptibility of the strain [9]	Susceptibility of the strain [10]	Susceptibility of the strain [11]	Susceptibility of the strain [12]	also measured
C[C@@H]1[C@H](O)[C@@H](C)/C=C/C=C/C=C/C=C/C=C/C=C/C=C/[C@H](O[C@@H]2O[C@H](C)[C@@H](O)[C@H](N)[C@@H]2O)C[C@@H]2O[C@](O)(C[C@@H](O)C[C@@H](O)[C@H](O)CC[C@@H](O)C[C@@H](O)CC(=O)O[C@H]1C)C[C@H](O)[C@H]2C(=O)O [Amphotericin B]	I	S	S	S	I	I	R	S	S	I	I	I	–
Clc1ccccc1C(c1ccccc1)(c1ccccc1)n1ccnc1 [Clo, clotrimazol]	S	S	S	S	S	S	R	S	S	S	S	R	zone of inhibition at 10 µg/disc [13]: 32 mm; zone of inhibition at 10 µg/disc [14]: 22 mm; zone of inhibition at 10 µg/disc [15]: 25 mm; zone of inhibition at 10 µg/disc [16]: 26 mm; zone of inhibition at 10 µg/disc [17]: 15 mm; zone of inhibition at 10 µg/disc [18]: 44 mm; zone of inhibition at 10 µg/disc [19]: 41 mm; zone of inhibition at 10 µg/disc [20]: 42 mm; zone of inhibition at 10 µg/disc [21]: 25 mm; zone of inhibition at 10 µg/disc [22]: 30 mm
OC(Cn1cncn1)(Cn1cncn1)c1ccc(F)cc1F [Fluconazole]	S	S	S	S	S	S	R	R	R	R	R	S	–
